In EP1073891B1, “METHOD OF PREDICTING RECEPTOR MODULATING ACTIVITY” (Duke University, priority 1998, dated 1999):
Like-named read-outs stand apart in the source and are kept apart here.

Tests used:
[1] = target: T1, ERβ (Homo sapiens, UniProt Q92731); assay: Phage ELISA / fingerprint on ER immobilized on biotinylated ERE (Examples 2.3-2.5); conditions: probe α/β I (LXXLL motif)
Procedure: Immulon 4 96-well plates were coated with streptavidin in 0.1 sodium bicarbonate.
All of the phage were classified based on their ability to bind to ER a and ER β, in the presence or absence of SERMs. These assays were conducted by phage ELISA. In essence, plastic plates were coated with streptavidin (sigma). Biotinylated-EREs (see above) were conjugated to the solid-phase streptavidin, and ER to the ERE. Bound phage were detected using horseradish peroxidase-labeled anti-(M13 phage) antibodies.
The ER was then incubated with 100µl TBST or TBST containing 1 µM of the appropriate modulator. Phage (40µl), from a 5 hour culture grown in DH5αF' cells, was added directly to the wells and incubated 30 minutes at room temperature. Unbound phage were then removed by 5 washes with TBST. Bound phage were detected using an anti-M13 antibody coupled to horseradish peroxidase (HRP). Assays were developed with 2,2'-azinobis(3-ethylbenzothiazoline)-6 sulfonic acid (ABTS) and hydrogen peroxide for 10 minutes and then stopped by the addition of 1% SDS.
The binding activity is indicated on a semiquantitative scale of 0 to 7+.
The probes were used to fingerprint the interaction of ER α and ER β with a variety of different SERMs by the assay method previously described (using ERE). Next, we evaluated the binding of each of the probes to ERα and ERβ in the presence of a variety of ER ligands that have distinct biological activities. The goal was to determine if each of the ligands would induce a conformational change in the ER that would alter the binding pattern of the probes, thus producing a "fingerprint" for each compound. […] Buffer only (apo-receptor) and progesterone were included as controls.
Phage were amplified from plaques in DHSα F' for 5 hours. Bound phage were detected as described previously. Assays were developed with ABTS (2,2'-azinobis(3-ethylbenzthiazoline-sulfonic acid) for 10 minutes.

[2] = target: T1, ERβ; assay: Time resolved fluorescence (TRF) binding of europium-streptavidin peptide conjugates in the presence of modulators; set-up: purchased PanVera Corporation, Madison, WI; conditions: for EC50 / Equiv.: ERβ; for Equiv.: positive: % of maximum stimulation by the reference modulator, negative: % of reduction by ICI 182,780
[3] = TRF binding assay, in the presence of the compound

T1 sequence (Q92731 whole entry): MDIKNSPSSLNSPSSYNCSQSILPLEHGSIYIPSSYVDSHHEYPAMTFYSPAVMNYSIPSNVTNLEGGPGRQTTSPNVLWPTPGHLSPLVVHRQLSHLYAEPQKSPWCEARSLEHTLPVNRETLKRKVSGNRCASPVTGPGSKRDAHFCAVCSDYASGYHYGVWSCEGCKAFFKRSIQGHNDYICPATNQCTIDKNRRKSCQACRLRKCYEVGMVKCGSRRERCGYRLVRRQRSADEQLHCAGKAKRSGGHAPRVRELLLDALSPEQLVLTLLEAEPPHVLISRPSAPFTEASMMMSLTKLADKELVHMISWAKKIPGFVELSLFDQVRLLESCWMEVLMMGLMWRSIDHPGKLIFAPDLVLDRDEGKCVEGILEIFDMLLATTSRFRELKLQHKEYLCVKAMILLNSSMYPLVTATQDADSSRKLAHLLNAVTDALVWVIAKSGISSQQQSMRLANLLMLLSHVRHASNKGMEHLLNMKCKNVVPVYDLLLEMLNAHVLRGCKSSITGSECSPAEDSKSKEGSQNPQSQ

Row | Structure (SMILES) | binding of the probe α/β I to ER β in the presence of the ligand [1] | binding of the β I probe to ER β [2] | binding of the β I probe to ER β [2, 3] | Equiv. ([2]; peptide probe α/βV) | other results
1 | CC/C(=C(\c1ccc(O)cc1)c1ccc(OCCN(C)C)cc1)c1ccccc1 [4-OH Tamoxifen, 4-OH tamoxifen] | prevented the binding | enhanced | – | – | –
2 | CCN(CC)CCOc1ccc(C(=C(Cl)c2ccccc2)c2ccccc2)cc1 [Clomiphene, clomiphene] | prevented the binding | – | reduced | 13% | EC50 ([2]; peptide probe α/βIII): 0.0822 µM; Equiv. ([2]; peptide probe α/βIII): 34%; Equiv. ([2]; peptide probe α/βIV): 0%; EC50 ([2]; peptide probe α/βV): 0.15 µM; EC50 ([2]; peptide probe βI): 0.135 µM; Equiv. ([2]; peptide probe βI): -62%; EC50 ([2]; peptide probe βIII): 0.123 µM; Equiv. ([2]; peptide probe βIII): -61%
3 | CC/C(=C(/CC)c1ccc(O)cc1)c1ccc(O)cc1 [DES, diethylstilbestrol] | – | – | reduction | – | –
4 | CC/C(=C(\c1ccc(O)cc1)c1ccc(/C=C/C(=O)O)cc1)c1ccccc1 [GW 7604] | – | – | – | 0% | Equiv. ([2]; peptide probe α/βI): 0%
5 | C[C@]12CC[C@@H]3c4ccc(O)cc4C[C@@H](CCCCCCCCC[S+]([O-])CCCC(F)(F)C(F)(F)F)[C@H]3[C@@H]1CC[C@@H]2O (stereo partly shown) [ICI 182,780] | prevented the binding | – | – | – | –
6 | O=C(c1ccc(OCCN2CCCCC2)cc1)c1c(-c2ccc(O)cc2)sc2cc(O)ccc12 [raloxifene] | prevented the binding | reduced | – | – | –
